Measured values: paper PMC7226045, “Ensartinib (X-396) Effectively Modulates Pharmacokinetic Resistance Mediated by ABCB1 and ABCG2 Drug Efflux Transporters and CYP3A4 Biotransformation Enzyme” (Cancers, 2020)

Legend:
[1] = molecular target: T1, CYP2C8 (Homo sapiens, UniProt P10632); test: Vivid CYP screening kit, recombinant CYP2C8; format: biochemical; settings: recombinant enzyme, 15 min incubation, absolute IC50; read-out: CYP2C8 inhibition IC50
T1 construct: purchased Thermo Fisher Scientific; host or cells: insect microsomal fractions
Method: (§1) CYP inhibitory assay was performed as described previously. Experiments were performed with commercial Vivid CYP screening kits containing insect microsomal fractions enriched with a specific human CYP isoform, human CYP reductase, and in some cases, human cytochrome b5. The potential inhibitory activity of ensartinib toward CYP1A2, CYP2B6, CYP2C8, CYP2C9, CYP2C19, CYP2D6, CYP3A4, and CYP3A5 (i.e., all CYP isoforms that drug regulatory authorities recommend for testing of inhibition by new molecular entities) was then examined. Experiments were performed using a kinetic mode in black 96-well plates according to the manufacturer´s instructions. Briefly, 5-point serial dilutions of ensartinib or the model inhibitor recommended by the manufacturer in buffer were transferred into the wells, then a master mix consisting of a CYP isoenzyme with an NADPH regeneration system in buffer was added. After a 10 min pre-incubation, the reaction was initiated by adding a mixture of NADP^+ and the appropriate Vivid substrate, after which fluorescence was measured at 1 min intervals for 60 min using an Infinite M200 Pro microplate reader (Tecan, Männedorf, Switzerland). The enzyme concentration and incubation interval used for data evaluation (15 min) placed the systems within the linear regions of the appropriate reaction velocity curves. […]

[2] = molecular target: CYP3A4 (Homo sapiens, UniProt P08684); test: Vivid CYP screening kit, recombinant CYP3A4; format: biochemical; parameters: purchased Thermo Fisher Scientific; host or cells: insect microsomal fractions; settings: recombinant enzyme, 15 min incubation, absolute IC50; read-out: CYP3A4 inhibition IC50
Method: as §1

[3] = MTT proliferation / drug combination assay, MDCKII-ABCB1; settings: dog, MDCKII-ABCB1 cells
Method: (§2) MTT proliferation assay was performed as described previously. Cells were seeded on a 96-well culture plate at densities (in units of cells/well) of 1.3 × 10^4 for MDCKII-par, MDCKII-ABCB1, MDCKII-ABCG2, and MDCKII-ABCC1; 1.2 × 10^4 for A431-par, A431-ABCB1, A431-ABCG2 and A431-ABCC1; 1.2 × 10^4 for NCI-H1299; 2.0 × 10^4 for Caco-2; 5.0 × 10^4 for LS174T; and 6.0 × 10^4 for HepG2-CYP3A4 and HepG2-EV. After seeding, the cells were cultured for 24 h, then the media was removed and the cells were treated with serial dilutions of a drug or drug combination for 48 h. Vehicles containing media and 40% DMSO in media served as 100% and 0% viability controls, respectively. Upon completion of the 48 h period, the cells were washed once with 1× PBS, the media was replaced with an MTT solution in Opti-MEM (1 mg/mL), and the cells were incubated under standard conditions for 60 min. MTT solution was carefully removed and the resulting formazan crystals were immediately solubilized in DMSO. The cells were then shaken gently for 10 min, after which absorbance of their lysate was measured at 570 nm and 690 nm using a microplate reader (Infinite M200, Tecan, Salzburg, Austria); background values obtained at 690 nm were subtracted from the measurements obtained at 570 nm. This method was used to assess the effect of ABC transporters on sensitivity to ensartinib, in drug combination assays, and to identify drug concentrations appropriate for use in induction studies.
(§3) Experiments focusing on the modulation of ABC transporter-mediated resistance were performed as described previously. The parent MDCKII and HL60 cells and their ABCB1-, ABCG2-, and ABCC1-overexpressing counterparts were seeded at the densities specified above onto 96-well culture plates and cultured for 24 h. The medium was subsequently replaced with serial dilutions of ensartinib alone or with various concentrations of a model MDR-susceptible cytostatic agent (daunorubicin or mitoxantrone) with or without 10 µM ensartinib. After 48 h incubation, the cells’ viability was determined as described above. In addition to performing IC50-shift analyses, the viability measurements were converted to FA (fraction of cells affected) values and the effects of drug combinations were quantified using the Chou-Talalay combination index (CI) method as implemented in CompuSyn 3.0.1 (ComboSyn Inc., Paramus, NJ, USA). The effects of concomitantly administered drugs were classified as synergistic (CI < 0.9), additive (0.9 < CI < 1.1), or antagonistic (CI > 1.1) based on the computed CI values.

[4] = system: MDCKII-ABCB1 cells; test: as above; settings: MDCKII-ABCB1
Method: as §2, §3

[5] = molecular target: T2, ABCC1 (Homo sapiens, UniProt P33527); test: daunorubicin accumulation assay (flow cytometry) in MDCKII-ABCC1 cells; format: cell-based; settings: 2 µM daunorubicin, 1 h, read-out: IC50, inhibition of daunorubicin efflux by ABCC1
T2 construct: expressed in transfected cells; host or cells: MDCKII-ABCC1 (from Dr. Alfred Schinkel, The Netherlands Cancer Institute)
Method: The flow-cytometric inhibitory assay with daunorubicin and mitoxantrone was performed with minor modifications as described previously. MDCKII-par, MDCKII-ABCB1, MDCKII-ABCG2, and MDCKII-ABCC1 cell lines were seeded at densities of 22.0 × 10^4, 15.0 × 10^4, 25.0 × 10^4, and 22.0 × 10^4 cells/well, respectively, on a 12-well plate and then incubated for 24 h to reach approximately 70–80% confluence. Further steps including cell washing, the preparation of drug/model inhibitor dilutions, and their addition to cells were performed as described above. After the 10 min pre-incubation period, 2 µM daunorubicin (a substrate of ABCB1/ABCC1) or 1 µM mitoxantrone (ABCG2 substrate) were promptly added to all wells other than those containing background samples, then the plate was incubated for 1 h under standard conditions. The plates were subsequently placed on ice, the cells were washed twice with ice-cold 1× PBS, and 10× trypsin without phenol red was added. After complete trypsinization, the cells were vigorously resuspended in ice-cold 1× PBS containing 2% FBS. Samples were then transferred into test-tubes and kept on ice until their fluorescence could be measured using a flow cytometer (BD FACSCanto II, Allschwil, Switzerland). The excitation/emission wavelengths for daunorubicin and mitoxantrone were 490/565 and 640/670 nm, respectively.

[6] = molecular target: T3, CYP2C19 (Homo sapiens, UniProt P33261); test: Vivid CYP screening kit, recombinant CYP2C19; format: biochemical; settings: recombinant enzyme, 15 min incubation, absolute IC50; read-out: CYP2C19 inhibition IC50
T3 construct: purchased Thermo Fisher Scientific; host or cells: insect microsomal fractions
Method: as §1

[7] = system: MDCKII-parent cells; test: MTT proliferation / drug combination assay, MDCKII-parent; format: cell-based, canine
Method: MTT proliferation assay was performed as described previously.

T2 sequence (P33527 whole entry): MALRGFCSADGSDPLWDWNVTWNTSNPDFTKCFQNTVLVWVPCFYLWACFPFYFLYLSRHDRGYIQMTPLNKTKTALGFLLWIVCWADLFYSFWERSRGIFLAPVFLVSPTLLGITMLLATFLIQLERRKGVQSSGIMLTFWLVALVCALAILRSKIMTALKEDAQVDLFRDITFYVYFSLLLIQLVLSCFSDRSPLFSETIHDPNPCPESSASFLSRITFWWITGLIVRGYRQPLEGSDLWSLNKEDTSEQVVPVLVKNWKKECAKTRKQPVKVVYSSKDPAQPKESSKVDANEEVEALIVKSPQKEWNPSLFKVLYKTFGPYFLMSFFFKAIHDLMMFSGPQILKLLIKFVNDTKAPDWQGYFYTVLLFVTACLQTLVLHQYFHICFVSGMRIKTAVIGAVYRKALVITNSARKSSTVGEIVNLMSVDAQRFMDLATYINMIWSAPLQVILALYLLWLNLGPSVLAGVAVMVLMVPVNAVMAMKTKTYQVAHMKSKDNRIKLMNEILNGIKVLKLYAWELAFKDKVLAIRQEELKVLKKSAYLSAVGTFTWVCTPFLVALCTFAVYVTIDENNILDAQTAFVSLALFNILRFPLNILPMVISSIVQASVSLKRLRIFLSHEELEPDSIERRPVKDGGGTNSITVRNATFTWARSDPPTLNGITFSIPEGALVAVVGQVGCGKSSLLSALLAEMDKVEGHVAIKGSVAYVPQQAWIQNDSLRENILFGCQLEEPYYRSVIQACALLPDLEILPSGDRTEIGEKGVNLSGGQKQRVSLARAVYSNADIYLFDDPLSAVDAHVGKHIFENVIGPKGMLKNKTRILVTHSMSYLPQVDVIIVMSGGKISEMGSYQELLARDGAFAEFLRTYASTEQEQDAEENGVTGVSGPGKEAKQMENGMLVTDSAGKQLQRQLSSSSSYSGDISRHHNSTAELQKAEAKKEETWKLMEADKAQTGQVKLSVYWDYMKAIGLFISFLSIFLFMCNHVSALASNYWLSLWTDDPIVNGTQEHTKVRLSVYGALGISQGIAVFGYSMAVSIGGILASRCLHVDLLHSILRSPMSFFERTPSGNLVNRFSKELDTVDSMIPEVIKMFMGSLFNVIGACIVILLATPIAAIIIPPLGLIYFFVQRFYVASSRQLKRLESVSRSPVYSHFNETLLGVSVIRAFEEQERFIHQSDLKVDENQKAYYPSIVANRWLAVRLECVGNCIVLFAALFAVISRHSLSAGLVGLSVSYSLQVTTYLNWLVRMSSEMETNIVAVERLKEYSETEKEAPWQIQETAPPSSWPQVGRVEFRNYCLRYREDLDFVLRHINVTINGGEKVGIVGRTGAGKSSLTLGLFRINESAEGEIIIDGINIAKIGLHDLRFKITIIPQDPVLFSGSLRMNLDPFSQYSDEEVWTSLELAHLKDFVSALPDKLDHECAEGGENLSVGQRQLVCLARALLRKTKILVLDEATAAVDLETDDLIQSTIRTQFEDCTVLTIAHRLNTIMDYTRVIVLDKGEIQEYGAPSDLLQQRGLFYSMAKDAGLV
Chain of CYP3A4 (P08684 2-503 limits assumed): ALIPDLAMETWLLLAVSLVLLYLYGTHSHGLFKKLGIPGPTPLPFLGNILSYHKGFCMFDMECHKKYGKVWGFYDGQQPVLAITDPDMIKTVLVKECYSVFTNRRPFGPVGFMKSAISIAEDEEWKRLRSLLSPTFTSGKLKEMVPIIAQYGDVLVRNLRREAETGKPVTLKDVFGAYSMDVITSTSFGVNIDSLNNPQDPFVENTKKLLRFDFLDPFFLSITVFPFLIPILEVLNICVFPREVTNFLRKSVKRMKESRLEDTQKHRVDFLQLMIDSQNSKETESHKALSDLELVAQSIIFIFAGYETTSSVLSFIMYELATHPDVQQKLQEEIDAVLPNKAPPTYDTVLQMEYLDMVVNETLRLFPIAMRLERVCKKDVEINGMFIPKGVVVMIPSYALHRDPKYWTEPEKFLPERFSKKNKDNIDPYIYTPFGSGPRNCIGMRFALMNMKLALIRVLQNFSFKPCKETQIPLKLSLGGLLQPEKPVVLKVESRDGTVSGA
T1 sequence (P10632 whole entry): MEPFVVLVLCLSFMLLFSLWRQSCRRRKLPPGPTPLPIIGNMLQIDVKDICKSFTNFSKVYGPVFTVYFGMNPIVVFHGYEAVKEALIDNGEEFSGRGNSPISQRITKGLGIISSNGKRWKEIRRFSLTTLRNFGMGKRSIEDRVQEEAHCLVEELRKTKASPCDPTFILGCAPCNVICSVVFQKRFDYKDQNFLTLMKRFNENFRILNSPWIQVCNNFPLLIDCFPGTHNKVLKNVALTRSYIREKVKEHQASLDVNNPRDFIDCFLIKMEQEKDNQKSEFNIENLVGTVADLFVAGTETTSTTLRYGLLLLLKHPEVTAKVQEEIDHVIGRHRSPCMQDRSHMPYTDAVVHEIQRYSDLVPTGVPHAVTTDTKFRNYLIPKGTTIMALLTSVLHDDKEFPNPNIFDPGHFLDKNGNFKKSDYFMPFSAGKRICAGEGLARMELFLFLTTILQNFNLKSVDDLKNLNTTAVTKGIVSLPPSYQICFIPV
T3 sequence (P33261 whole entry): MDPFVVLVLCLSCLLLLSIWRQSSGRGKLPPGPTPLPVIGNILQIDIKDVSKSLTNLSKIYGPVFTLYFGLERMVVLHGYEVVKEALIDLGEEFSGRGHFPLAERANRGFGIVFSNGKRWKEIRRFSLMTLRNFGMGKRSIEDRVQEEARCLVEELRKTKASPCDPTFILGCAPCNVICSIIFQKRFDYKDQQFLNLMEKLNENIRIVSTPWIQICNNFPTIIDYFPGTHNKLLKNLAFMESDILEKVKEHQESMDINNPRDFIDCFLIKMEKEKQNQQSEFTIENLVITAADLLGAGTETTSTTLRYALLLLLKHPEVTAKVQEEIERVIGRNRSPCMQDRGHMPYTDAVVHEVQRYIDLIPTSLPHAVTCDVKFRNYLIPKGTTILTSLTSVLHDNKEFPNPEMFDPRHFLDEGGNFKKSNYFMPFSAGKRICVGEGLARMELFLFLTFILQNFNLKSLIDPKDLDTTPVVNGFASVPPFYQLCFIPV

IC50 [1]: 20.6 µM
IC50 [2]: 1.12 µM
IC50 [5]: > 50 µM
IC50 [6]: 14.6 µM
Structure (SMILES): C[C@@H]1CN(C(=O)c2ccc(NC(=O)c3cc(O[C@H](C)c4c(Cl)ccc(F)c4Cl)c(N)nn3)cc2)C[C@H](C)N1 [ensartinib, Ensartinib]
IC50 at 48 h [3]: 23.9 µM
combination effect (Chou-Talalay combination index) ([4]; 10 µM ensartinib with daunorubicin): synergistic (synergistic (CI < 0.9))
RR (reversal ratio) ([4]; daunorubicin, IC50 single drug / IC50 combined with 10 µM ensartinib): 11.2
IC50 ([7]; Canis lupus familiaris, MDCKII-parent, 48 h, MTT, read-out: IC50, sensitivity to ensartinib): 21.8 µM
combination effect (Chou-Talalay combination index) ([7]; MDCKII parental, 10 µM ensartinib with daunorubicin or mitoxantrone, whole FA range): antagonistic or additive
